Tests used:
Type in all cases: in vivo
[1] = Change of blood glucose levels after administration of the test compounds to rats; conditions: for blood glucose level as a percentage compared to the baseline level (vehicle-treated rats = 100%): 50 μmol/kg intravenously
[2] = tested on: Reserpine-induced hypothermia mice; experiment: Anti-reserpine action after intravenous and intracerebroventicular administration of test compounds; conditions: for Dose which can increase the average of body temperatures at 1° C. for 180 min in reserpine-induced hypothermia mice, administered intracerebroventicularly: intracerebroventicular, calculated from AUC for 180 min after 0.21 μmol/kg
Method: Anti Recerpine Action After Intravenous and Intracerebroventicular Administration of Test Compounds
Recerpine-induced hypothermia mice (ddY, male) were prepared by the administration of reserpine (3 mg/kg) at 18 hours before test compounds administration. Mice with their body temperature about 25° C. were used in the experiment. Test compounds were solubilized in saline and 0.1 ml (1 μmol/kg) of them were administered intravenously and 0.005 ml (0.21 μmol/kg) of them were administered intracerebroventicularly, respectively. After the administration, rectal temperature was measured at 30, 60, 120, and 180 min. The area under curve (AUC) of the body temperature-time profile was calculated by the general trapezoidal method. In the control experiment, vehicle (saline) was administered to mice intravenously or intracerebroventicularly and the rectal temperature was measured by the same protocol. The effective dose, which can increase the average of body temperatures at 1° C. for 180 min in reserpine-induced hypothermia mice after intravenous or intracerebroventicular administration of the test compounds, is calculated by the following equation: [formula]
Effective dose: Dose which can increase the average of body temperatures at 1° C. for 180 min in reserpine-induced hypothermia mice.
AUC (test compounds): The area under curve (AUC) of the body temperature-time profile for 180 min after intravenous or intracerebroventicular administration of test, compounds was calculated by the general trapezoidal method.
AUC (vehicle): The area under curve (AUC) of the body temperature-time profile for 180 min after intravenous or intracerebroventicular administration of saline was calculated by the general trapezoidal method.

[3] = tested on: Reserpine-induced hypothermia mice; experiment: Anti-reserpine action after oral administration of test compounds; conditions: calculated from AUC of body temperature-time profile for 420 min after 10 μmol/kg
Method: Anti-recerpine Action After Oral Administration of Test Compounds
Reserpine-induced hypothemia mice (ddY, male, body weight: 30 to 40 g) were prepared by the subcutaneous administration of reserpine in back side of the […] (3 mg/kg) at 18 hours before test compounds administration. Mice with their body temperature about 25° C. were used in the experiment. Test compounds were solubilized in saline and 0.2 ml (10 μmol/kg) of them were administered by sonde for oral administration. After the administration, rectal temperature was measured at, 30, 60, 120, 180, 240, 300, and […]. The area under curve (AUC) of the body temperature-time profile was calculated by the general trapezoidal method. In the control experiment, vehicle (saline) was administered to mice and the rectal temperature was measured by the same protocol. The effective dose, which can increase the average of body temperature at 1° C. for 420 min in reserpine-induced hypothermia mice after oral administration of the test compounds, is calculated by the following equation: [formula]
Effective dose: Dose which can increase the average of body temperatures at 1° C. for 420 min in reserpine-induced hypothermia mice.
AUC (test compounds): The area under curve (AUC) of the body temperature-time profile for 420 min after oral administration of test compounds was calculated by the general trapezoidal method. […]

Compound: C[C@H]1OC(=O)N[C@H]1C(=O)N[C@@H](Cc1cscn1)C(=O)N1CCC[C@H]1C(N)=O (mixture of isomers) [Compound I-10, cis-L-5-methyl-2-oxo-oxazolidine-4-yl-carbonyl-3-(4-thiazolyl)-L-alanyl-L-prolineamide]
- blood glucose level as a percentage compared to the baseline level (vehicle-treated rats = 100%) ([1]; Time 0 min): 107.7%
- blood glucose level as a percentage compared to the baseline level (vehicle-treated rats = 100%) ([1]; Time 5 min): 119.9%
- blood glucose level as a percentage compared to the baseline level (vehicle-treated rats = 100%) ([1]; Time 15 min): 104.3%
- blood glucose level as a percentage compared to the baseline level (vehicle-treated rats = 100%) ([1]; Time 30 min): 109.1%
- blood glucose level as a percentage compared to the baseline level (vehicle-treated rats = 100%) ([1]; Time 60 min): 112.1%
- blood glucose level as a percentage compared to the baseline level (vehicle-treated rats = 100%) ([1]; Time 120 min): 126.5%
- blood glucose level as a percentage compared to the baseline level (vehicle-treated rats = 100%) ([1]; Time 180 min): 105.3%
- blood glucose level as a percentage compared to the baseline level (vehicle-treated rats = 100%) ([1]; Time 240 min): 110.9%
- blood glucose level as a percentage compared to the baseline level (vehicle-treated rats = 100%) ([1]; Time 300 min): 104.0%
- blood glucose level as a percentage compared to the baseline level (vehicle-treated rats = 100%) ([1]; Time 360 min): 100.4%
- blood glucose level as a percentage compared to the baseline level (vehicle-treated rats = 100%) ([1]; Time 420 min): 102.6%
- blood glucose level as a percentage compared to the baseline level (vehicle-treated rats = 100%) ([1]; Time 480 min): 111.8%
- Dose which can increase the average of body temperatures at 1° C. for 180 min in reserpine-induced hypothermia mice, administered intracerebroventicularly [2]: 0.025 µmol/kg

Compound: NC(=O)[C@@H]1CCCN1C(=O)[C@H](Cc1cnc[nH]1)NC(=O)[C@@H]1CCC(=O)N1 [TRH, L-pyroglutamyl-L-histidyl-L-prolineamide]
- Dose which can increase the average of body temperatures at 1° C. for 420 min in reserpine-induced hypothermia mice by oral [3]: 42.68 µmol/kg
- blood glucose level as a percentage compared to the baseline level (vehicle-treated rats = 100%) ([1]; Time 0 min): 116.3%
- blood glucose level as a percentage compared to the baseline level (vehicle-treated rats = 100%) ([1]; Time 5 min): 114.6%
- blood glucose level as a percentage compared to the baseline level (vehicle-treated rats = 100%) ([1]; Time 15 min): 123.3%
- blood glucose level as a percentage compared to the baseline level (vehicle-treated rats = 100%) ([1]; Time 30 min): 137.9%
- blood glucose level as a percentage compared to the baseline level (vehicle-treated rats = 100%) ([1]; Time 60 min): 153.5%
- blood glucose level as a percentage compared to the baseline level (vehicle-treated rats = 100%) ([1]; Time 120 min): 139.1%
- blood glucose level as a percentage compared to the baseline level (vehicle-treated rats = 100%) ([1]; Time 180 min): 119.1%
- blood glucose level as a percentage compared to the baseline level (vehicle-treated rats = 100%) ([1]; Time 240 min): 112.6%
- blood glucose level as a percentage compared to the baseline level (vehicle-treated rats = 100%) ([1]; Time 300 min): 113.2%
- blood glucose level as a percentage compared to the baseline level (vehicle-treated rats = 100%) ([1]; Time 360 min): 103.5%
- blood glucose level as a percentage compared to the baseline level (vehicle-treated rats = 100%) ([1]; Time 420 min): 102.6%
- blood glucose level as a percentage compared to the baseline level (vehicle-treated rats = 100%) ([1]; Time 480 min): 97.1%
- acute rise of the blood glucose level and fall by the rebound after administration ([1]; result in words): acutely raises up the blood glucose level
- Dose which can increase the average of body temperatures at 1° C. for 180 min in reserpine-induced hypothermia mice, administered intracerebroventicularly [2]: 0.033 µmol/kg
- Dose which can increase the average of body temperatures at 1° C. for 180 min in reserpine-induced hypothermia mice, administered intravenously ([2]; intravenous, calculated from AUC for 180 min after 1 μmol/kg): 9.84 µmol/kg
